Reference: US20240174622A1, “COMPOUND AND RADIOACTIVE LABELING COMPOUND” (NIHON MEDI-PHYSICS CO., LTD., priority 2021, published 2024)

What was measured:
[1] = system: LNCaP tumor-transplanted mouse; experiment: Internal radioactivity distribution using LNCaP tumor-transplanted mouse; type: in vivo
Method in brief: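 Biodistribution is given as percent injected dose per gram of tissue, measured in blood and organs harvested at time points from 1 h to 192 h. Radiotracers were given by tail-vein injection in saline at 185–259 kBq, n=2–3. Hosts were male CB17 SCID mice carrying LNCaP or PC-3 tumours implanted s.c. in Matrigel 40–60 days earlier.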

[2] = system: PC-3 tumor-transplanted mouse; experiment: Internal radioactivity distribution using PC-3 tumor-transplanted mouse; type: in vivo
Description: (§1) The animal test was performed in compliance with the guidelines of Kyoto University Animal Experiment Committee. Male CB17/IcrJcl-Prkdc^scid mice were purchased from CLEA Japan, Inc. The animals were kept under 12 h/12 h, day/night cycle conditions and fed ad libitum with food and water. LNCaP cells (1.0×10^7 cells/mouse) or PC-3 cells (1.0×10^7 cells/mouse) were suspended in a mixture of PBS and Matrigel manufactured by Corning Life Sciences (1:1, 150 μL) and the suspension was subcutaneously transplanted to the right shoulder of mice under isoflurane anesthesia. Thereafter, the mice were kept for 40 to 60 days.
LNCaP or PC-3 tumor-implanted mice were administered saline solutions (185 kBq, 100 μL) of [^111In]In-PSMA-DA1 or [^111In]In-PSMA-DB from the tail vein (n=3 each). Mice were euthanized 1, 4, 24, 48, 96, and 192 hours after administration. Thereafter, blood and each organ were recovered, and the mass and radioactivity of the organs were measured.
The percentage (% ID) of the radioactivity amount to the administered radioactivity amount (injected dose) is shown as the value (% ID/g) divided by the blood mass or the organ mass (g).
as §1, with “LNCaP cells (4.3×10^6 cells/mouse) or” for “LNCaP cells (1.0×10^7 cells/mouse) or”, “PC-3 cells (3.3×10^6 cells/mouse) were” for “PC-3 cells (1.0×10^7 cells/mouse) were”, “shoulder of CB17/IcrJcl-Prkdc^scid mice under” for “shoulder of mice under”
Mice were euthanized 1, 4, 24, 48, 96, and 192 hours after administration. Thereafter, blood and each organ were recovered, and the mass and radioactivity of the organs were measured.
The results are shown in Table 13 (Mean value±standard deviation, n=3).

[3] = 24 h after administration, PC-3 tumor-transplanted mice

Blood ([1]; 1 h after administration): 31.1 ± 3.99 % ID/g | Brain ([1]; 1 h after administration): 0.56 ± 0.06 % ID/g | Heart ([1]; 1 h after administration): 7.93 ± 2.10 % ID/g | Intestine ([1]; 1 h after administration): 2.63 ± 0.42 % ID/g | Kidney ([1]; 1 h after administration): 34.3 ± 7.79 % ID/g | LNCaP Tumor ([1]; 1 h after administration): 9.41 ± 2.30 % ID/g | Liver ([1]; 1 h after administration): 4.95 ± 0.27 % ID/g | Lung ([1]; 1 h after administration): 16.2 ± 3.86 % ID/g | Muscle ([1]; 1 h after administration): 2.02 ± 0.17 % ID/g | Pancreas ([1]; 1 h after administration): 3.34 ± 0.40 % ID/g | Spleen ([1]; 1 h after administration): 8.56 ± 2.90 % ID/g | Stomach (% ID) ([1]; 1 h after administration): 0.52 ± 0.02 % ID | Blood ([1]; 4 h after administration): 26.9 ± 9.56 % ID/g | Brain ([1]; 4 h after administration): 0.52 ± 0.15 % ID/g | Heart ([1]; 4 h after administration): 7.10 ± 1.82 % ID/g | Intestine ([1]; 4 h after administration): 3.17 ± 0.73 % ID/g | Kidney ([1]; 4 h after administration): 63.5 ± 13.9 % ID/g | LNCaP Tumor ([1]; 4 h after administration): 12.1 ± 4.04 % ID/g | Liver ([1]; 4 h after administration): 4.20 ± 1.51 % ID/g | Lung ([1]; 4 h after administration): 17.9 ± 6.62 % ID/g | Muscle ([1]; 4 h after administration): 2.15 ± 1.09 % ID/g | Pancreas ([1]; 4 h after administration): 2.48 ± 1.03 % ID/g | Spleen ([1]; 4 h after administration): 9.52 ± 4.28 % ID/g | Stomach (% ID) ([1]; 4 h after administration): 0.51 ± 0.05 % ID | Blood ([1]; 24 h after administration): 14.0 ± 3.27 % ID/g | Brain ([1]; 24 h after administration): 0.36 ± 0.11 % ID/g | Heart ([1]; 24 h after administration): 4.26 ± 0.89 % ID/g | Intestine ([1]; 24 h after administration): 1.53 ± 0.44 % ID/g | Kidney ([1]; 24 h after administration): 27.1 ± 9.25 % ID/g | LNCaP Tumor ([1]; 24 h after administration): 12.6 ± 2.15 % ID/g | Liver ([1]; 24 h after administration): 2.64 ± 0.38 % ID/g | Lung ([1]; 24 h after administration): 10.5 ± 2.58 % ID/g | Muscle ([1]; 24 h after administration): 1.38 ± 0.39 % ID/g | Pancreas ([1]; 24 h after administration): 2.12 ± 0.49 % ID/g | Spleen ([1]; 24 h after administration): 6.01 ± 2.33 % ID/g | Stomach (% ID) ([1]; 24 h after administration): 0.40 ± 0.09 % ID | retention in blood ([1]; 24 hours after administration): 14.000 % ID/g | Blood ([1]; 48 h after administration): 4.18 ± 0.56 % ID/g | Brain ([1]; 48 h after administration): 0.16 ± 0.01 % ID/g | Heart ([1]; 48 h after administration): 1.66 ± 0.23 % ID/g | Intestine ([1]; 48 h after administration): 0.96 ± 0.25 % ID/g | Kidney ([1]; 48 h after administration): 9.04 ± 2.70 % ID/g | LNCaP Tumor ([1]; 48 h after administration): 8.82 ± 1.26 % ID/g | Liver ([1]; 48 h after administration): 1.59 ± 0.14 % ID/g | Lung ([1]; 48 h after administration): 4.17 ± 0.26 % ID/g | Muscle ([1]; 48 h after administration): 0.54 ± 0.10 % ID/g | Pancreas ([1]; 48 h after administration): 1.06 ± 0.12 % ID/g | Spleen ([1]; 48 h after administration): 4.28 ± 0.79 % ID/g | Stomach (% ID) ([1]; 48 h after administration): 0.25 ± 0.05 % ID | tumor/kidney ratio ([1]; 48 hours after administration): exceeded 1 | Blood ([1]; 96 h after administration): 0.76 ± 0.58 % ID/g | Brain ([1]; 96 h after administration): 0.07 ± 0.03 % ID/g | Heart ([1]; 96 h after administration): 0.75 ± 0.33 % ID/g | Intestine ([1]; 96 h after administration): 0.75 ± 0.44 % ID/g | Kidney ([1]; 96 h after administration): 3.51 ± 2.54 % ID/g | LNCaP Tumor ([1]; 96 h after administration): 5.98 ± 1.87 % ID/g | Liver ([1]; 96 h after administration): 1.10 ± 0.27 % ID/g | Lung ([1]; 96 h after administration): 1.55 ± 0.86 % ID/g | Muscle ([1]; 96 h after administration): 0.23 ± 0.09 % ID/g | Pancreas ([1]; 96 h after administration): 0.64 ± 0.24 % ID/g | Spleen ([1]; 96 h after administration): 2.42 ± 1.54 % ID/g | Stomach (% ID) ([1]; 96 h after administration): 0.08 ± 0.03 % ID | Blood ([1]; 192 h after administration): 0.16 ± 0.03 % ID/g | Brain ([1]; 192 h after administration): 0.05 ± 0.01 % ID/g | Heart ([1]; 192 h after administration): 0.41 ± 0.08 % ID/g | Intestine ([1]; 192 h after administration): 0.12 ± 0.03 % ID/g | Kidney ([1]; 192 h after administration): 1.33 ± 0.42 % ID/g | LNCaP Tumor ([1]; 192 h after administration): 4.69 ± 1.32 % ID/g | Liver ([1]; 192 h after administration): 0.69 ± 0.12 % ID/g | Lung ([1]; 192 h after administration): 0.75 ± 0.22 % ID/g | Muscle ([1]; 192 h after administration): 0.15 ± 0.05 % ID/g | Pancreas ([1]; 192 h after administration): 0.46 ± 0.08 % ID/g | Spleen ([1]; 192 h after administration): 2.69 ± 0.83 % ID/g | Stomach (% ID) ([1]; 192 h after administration): 0.05 ± 0.01 % ID | Blood [2, 3]: 5.73 ± 0.67 % ID/g | Brain [2, 3]: 0.17 ± 0.04 % ID/g | Heart [2, 3]: 1.90 ± 0.22 % ID/g | Intestine [2, 3]: 1.37 ± 0.22 % ID/g | Kidney [2, 3]: 9.56 ± 1.55 % ID/g | Liver [2, 3]: 1.60 ± 0.12 % ID/g | Lung [2, 3]: 4.74 ± 0.67 % ID/g | Muscle [2, 3]: 0.59 ± 0.02 % ID/g | PC-3 Tumor [2, 3]: 2.69 ± 0.30 % ID/g | Pancreas [2, 3]: 1.37 ± 0.04 % ID/g | Spleen [2, 3]: 2.52 ± 0.12 % ID/g | Stomach (% ID) [2, 3]: 0.27 ± 0.08 % ID | accumulation at the PC-3 tumor compared with the LNCaP tumor at the same time point (in words) ([2]; mouse, in vivo): less accumulated
Compound: O=C([O-])CN1CCN(C(CCC(=O)NCCCC[C@H](NC(=O)N[C@@H](CCC(=O)O)C(=O)O)C(=O)O)C(=O)[O-])CCN(CC(=O)[O-])CCN(C(CCC(=O)N[C@@H](CCCCNC(=O)CCCc2ccc(I)cc2)C(=O)O)C(=O)[O-])CC1.[111In+3] (stereo partly drawn) [[^111In]In-PSMA-DA1]
